Measurements reported in patent US20030225132A1, “Estrogen receptor modulators” (priority 2002, published 2003).

Test system: MCF-7 cells
Experiment: MCF-7 Estrogen Dependent Proliferation Assay
Format: cell-based
Settings: Homo sapiens, MCF7; added to Estrogen Depleted Media (EDM); read-out: EC50 of stimulation of growth of MCF-7 cells
Text: MCF-7 Estrogen Dependent Proliferation Assay MCF-7 cells (ATCC #HTB-22) are human mammary gland adenocarcinoma cells that require estrogen for growth. The growth media (GM) for the MCF-7 cells is Minimum Essential Media (without phenol red) supplemented with fetal bovine serum ([…]) to 10%. The PBS serves as the sole source of estrogen and this GM supports the full growth of the cells and is used for the routine growth of the cell cultures. When MCF-7 cells are placed in a media in which 10% Charcoal-Dextran treated fetal bovine serum (CD-FBS) is substituted for PBS, the cells will cease to divide but will remain viable. […] The addition of estradiol to EDM stimulates the growth of the MCF-7 cells in a dose dependent manner with an EC50 of 2 pM. Growing MCF-7 cells are washed several times with EDM and the cultures then maintained in EDM for a minimum of 6 days in order to deplete the cells of endogenous estrogen. […] At this point, the culture supernatants are aspirated, the cells washed 2× with PBS, the wash solution aspirated and the protein content of each well determined. Each drug dilution is evaluated on a minimum of 5 wells and the range of dilution of the test compounds in the assay is 0.001 nM to 1000 nM. […] The assay is terminated at day 8-10 when the appropriate controls reach 80-90% confluency and the protein content of each well is determined as above.

EC50: 2 pM
SMILES: C[C@]12CC[C@@H]3c4ccc(O)cc4CC[C@H]3[C@@H]1CC[C@@H]2O [estradiol]
